#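 All cell lines were grown in 96-well plates and treated with compound for 48 hours. GI50: concentration for 50% inhibition of growth. TGI denotes the concentration required for complete inhibition of growth.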
# Legend:
# Experiment in all cases: inhibition of tumour cell growth, NCI panel, 48 h
# OVCAR-4 ovarian = test system: OVCAR-4 ovarian
# OVCAR-3 ovarian = test system: OVCAR-3 ovarian
# SNB-75 CNS = test system: SNB-75 CNS
# HCT-15 colon = test system: HCT-15 colon
# HL-60(TB) leukemia = test system: HL-60(TB) leukemia
# RXF 393 renal = test system: RXF 393 renal
# TK-10 renal = test system: TK-10 renal
# CCRF-CEM leukemia = test system: CCRF-CEM leukemia
# CAKI-1 renal = test system: CAKI-1 renal
# UACC-257 melanoma = test system: UACC-257 melanoma
# SR leukemia = test system: SR leukemia
# K-562 leukemia = test system: K-562 leukemia
# ACHN renal = test system: ACHN renal
# NCI/ADR-RES ovarian = test system: NCI/ADR-RES ovarian
# SK-MEL-28 melanoma = test system: SK-MEL-28 melanoma
# NCI-H226 lung = test system: NCI-H226 lung
# 786-0 renal = test system: 786-0 renal
# HOP-62 NSCLC = test system: HOP-62 NSCLC
# SK-MEL-2 melanoma = test system: SK-MEL-2 melanoma
# NCI-H522 lung = test system: NCI-H522 lung
# SF-295 CNS = test system: SF-295 CNS
# NCI-H460 lung = test system: NCI-H460 lung
# MDA-MB-435 = test system: MDA-MB-435
# MALME-3M melanoma = test system: MALME-3M melanoma
# SK-MEL-5 melanoma = test system: SK-MEL-5 melanoma
# NCI-H23 lung = test system: NCI-H23 lung
# U251 CNS = test system: U251 CNS
# IGROV1 ovarian = test system: IGROV1 ovarian
# T-47D breast = test system: T-47D breast
# COLO 205 colon = test system: COLO 205 colon
# SNB-19 CNS = test system: SNB-19 CNS
# SN12C renal = test system: SN12C renal
# OVCAR-8 ovarian = test system: OVCAR-8 ovarian
# M14 melanoma = test system: M14 melanoma
# MCF7 breast = test system: MCF7 breast
# LOX IMVI melanoma = test system: LOX IMVI melanoma
# UACC-62 melanoma = test system: UACC-62 melanoma
# HCT-116 colon = test system: HCT-116 colon
# MOLT-4 leukemia = test system: MOLT-4 leukemia
# HT29 colon = test system: HT29 colon
# OVCAR-5 ovarian = test system: OVCAR-5 ovarian
# SF-539 CNS = test system: SF-539 CNS
# RPMI-8226 leukemia = test system: RPMI-8226 leukemia
# SF-268 CNS = test system: SF-268 CNS
# HS 578T breast = test system: HS 578T breast
# HOP-92 NSCLC = test system: HOP-92 NSCLC
# KM12 colon = test system: KM12 colon
# HCC-2998 colon = test system: HCC-2998 colon
# MDA-MB-231 breast = test system: MDA-MB-231 breast
# PC-3 prostate = test system: PC-3 prostate
# A549 NSCLC = test system: A549 NSCLC
# DU-145 prostate = test system: DU-145 prostate
# BT-549 breast = test system: BT-549 breast
# A498 renal = test system: A498 renal
# UO-31 renal = test system: UO-31 renal
# SW-620 colon = test system: SW-620 colon
# SK-OV-3 ovarian = test system: SK-OV-3 ovarian
compound,measurement,setting,value
COc1cc(OC)c(/C=C/c2ccc3ccccc3[n+]2C)c(OC)c1,GI50,OVCAR-4 ovarian,659 nM
same,TGI,OVCAR-4 ovarian,15800 nM
same,GI50,OVCAR-3 ovarian,560 nM
same,TGI,OVCAR-3 ovarian,3900 nM
same,GI50,SNB-75 CNS,586 nM
same,TGI,SNB-75 CNS,12400 nM
same,GI50,HCT-15 colon,12800 nM
same,TGI,HCT-15 colon,> 100000 nM
same,GI50,HL-60(TB) leukemia,363 nM
same,TGI,HL-60(TB) leukemia,2920 nM
same,GI50,RXF 393 renal,2060 nM
same,TGI,RXF 393 renal,11700 nM
same,GI50,TK-10 renal,1910 nM
same,TGI,TK-10 renal,6930 nM
same,GI50,CCRF-CEM leukemia,697 nM
same,TGI,CCRF-CEM leukemia,6490 nM
same,GI50,CAKI-1 renal,8550 nM
same,TGI,CAKI-1 renal,> 49200 nM
same,GI50,UACC-257 melanoma,490 nM
same,TGI,UACC-257 melanoma,3190 nM
same,GI50,SR leukemia,350 nM
same,TGI,SR leukemia,2680 nM
same,GI50,K-562 leukemia,271 nM
same,TGI,K-562 leukemia,20900 nM
same,GI50,ACHN renal,4320 nM
same,TGI,ACHN renal,> 75500 nM
same,GI50,NCI/ADR-RES ovarian,> 66400 nM
same,TGI,NCI/ADR-RES ovarian,> 100000 nM
same,GI50,SK-MEL-28 melanoma,891 nM
same,TGI,SK-MEL-28 melanoma,3620 nM
same,GI50,NCI-H226 lung,1420 nM
same,TGI,NCI-H226 lung,18500 nM
same,GI50,786-0 renal,3160 nM
same,TGI,786-0 renal,16800 nM
same,GI50,HOP-62 NSCLC,1130 nM
same,TGI,HOP-62 NSCLC,12100 nM
same,GI50,SK-MEL-2 melanoma,1130 nM
same,TGI,SK-MEL-2 melanoma,3060 nM
same,GI50,NCI-H522 lung,1140 nM
same,TGI,NCI-H522 lung,6250 nM
same,GI50,SF-295 CNS,549 nM
same,TGI,SF-295 CNS,4250 nM
same,GI50,NCI-H460 lung,577 nM
same,TGI,NCI-H460 lung,2720 nM
same,GI50,MDA-MB-435,342 nM
same,TGI,MDA-MB-435,1530 nM
same,GI50,MALME-3M melanoma,691 nM
same,TGI,MALME-3M melanoma,5380 nM
same,GI50,SK-MEL-5 melanoma,567 nM
same,TGI,SK-MEL-5 melanoma,1950 nM
same,GI50,NCI-H23 lung,686 nM
same,TGI,NCI-H23 lung,12200 nM
same,GI50,U251 CNS,323 nM
same,TGI,U251 CNS,8970 nM
same,GI50,IGROV1 ovarian,1210 nM
same,TGI,IGROV1 ovarian,13600 nM
same,GI50,T-47D breast,294 nM
same,TGI,T-47D breast,2830 nM
same,GI50,COLO 205 colon,208 nM
same,TGI,COLO 205 colon,465 nM
same,GI50,SNB-19 CNS,375 nM
same,TGI,SNB-19 CNS,14800 nM
same,GI50,SN12C renal,360 nM
same,TGI,SN12C renal,16900 nM
same,GI50,OVCAR-8 ovarian,507 nM
same,TGI,OVCAR-8 ovarian,6480 nM
same,GI50,M14 melanoma,1220 nM
same,TGI,M14 melanoma,5010 nM
same,GI50,MCF7 breast,841 nM
same,TGI,MCF7 breast,10600 nM
same,GI50,LOX IMVI melanoma,1330 nM
same,TGI,LOX IMVI melanoma,3990 nM
same,GI50,UACC-62 melanoma,1130 nM
same,TGI,UACC-62 melanoma,3080 nM
same,GI50,HCT-116 colon,392 nM
same,TGI,HCT-116 colon,11700 nM
same,GI50,MOLT-4 leukemia,1350 nM
same,TGI,MOLT-4 leukemia,4770 nM
same,GI50,HT29 colon,280 nM
same,TGI,HT29 colon,1570 nM
same,GI50,OVCAR-5 ovarian,3090 nM
same,TGI,OVCAR-5 ovarian,25200 nM
same,GI50,SF-539 CNS,422 nM
same,TGI,SF-539 CNS,5780 nM
same,GI50,RPMI-8226 leukemia,281 nM
same,TGI,RPMI-8226 leukemia,2240 nM
same,GI50,SF-268 CNS,501 nM
same,TGI,SF-268 CNS,7610 nM
same,GI50,HS 578T breast,638 nM
same,TGI,HS 578T breast,19300 nM
same,GI50,HOP-92 NSCLC,951 nM
same,TGI,HOP-92 NSCLC,4510 nM
same,GI50,KM12 colon,322 nM
same,TGI,KM12 colon,1990 nM
same,GI50,HCC-2998 colon,811 nM
same,TGI,HCC-2998 colon,5600 nM
same,GI50,MDA-MB-231 breast,1760 nM
same,TGI,MDA-MB-231 breast,12100 nM
same,GI50,PC-3 prostate,1820 nM
same,TGI,PC-3 prostate,17300 nM
same,GI50,A549 NSCLC,748 nM
same,TGI,A549 NSCLC,13900 nM
same,GI50,DU-145 prostate,944 nM
same,TGI,DU-145 prostate,15300 nM
same,GI50,BT-549 breast,401 nM
same,TGI,BT-549 breast,7300 nM
same,GI50,A498 renal,535 nM
same,TGI,A498 renal,5420 nM
same,GI50,UO-31 renal,6140 nM
same,TGI,UO-31 renal,54000 nM
same,GI50,SW-620 colon,902 nM
same,TGI,SW-620 colon,11300 nM
same,GI50,SK-OV-3 ovarian,1370 nM
same,TGI,SK-OV-3 ovarian,26000 nM

# From PubChem BioAssay (NCI)
